What is called inhibition is the share of the control response that was lost under treatment. What is called Ki is the equilibrium dissociation constant of an inhibitor or competing ligand from its target.

This note sets out measurements from ChEMBL document CHEMBL1177853, “Synthesis and pharmacological evaluation of novel substituted 9-deazaxanthines as A2B receptor antagonists” (Eur J Med Chem, 2010).

For test [1], the target named is T1, Adenosine receptor A1 (Homo sapiens) (UniProt P30542).
T1 sequence (whole entry): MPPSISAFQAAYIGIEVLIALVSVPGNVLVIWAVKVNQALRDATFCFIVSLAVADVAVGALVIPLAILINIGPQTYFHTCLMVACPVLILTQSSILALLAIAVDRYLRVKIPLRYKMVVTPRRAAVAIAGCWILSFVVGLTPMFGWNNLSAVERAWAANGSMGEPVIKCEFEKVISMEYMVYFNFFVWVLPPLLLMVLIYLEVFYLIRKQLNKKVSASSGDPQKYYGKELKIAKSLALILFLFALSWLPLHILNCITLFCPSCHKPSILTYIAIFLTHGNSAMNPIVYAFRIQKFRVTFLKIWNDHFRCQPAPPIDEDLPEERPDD
Description: Displacement of [3H]DPCPX from human recombinant adenosine A1 receptor expressed in CHO-A1 cells at 1 uM after 60 mins. It counts as cell-based.

Test [2] deals with T2, Adenosine receptor A2b (Homo sapiens) (UniProt P29275).
T2 sequence (whole entry): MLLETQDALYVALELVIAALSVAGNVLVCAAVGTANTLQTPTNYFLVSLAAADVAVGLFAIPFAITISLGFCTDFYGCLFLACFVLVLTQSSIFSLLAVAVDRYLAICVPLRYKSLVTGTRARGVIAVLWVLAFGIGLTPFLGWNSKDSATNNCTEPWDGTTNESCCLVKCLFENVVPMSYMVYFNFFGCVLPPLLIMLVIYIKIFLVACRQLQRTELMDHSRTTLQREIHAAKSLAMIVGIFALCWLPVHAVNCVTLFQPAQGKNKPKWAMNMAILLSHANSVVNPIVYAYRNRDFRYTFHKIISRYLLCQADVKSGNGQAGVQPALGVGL
The test can be described thus: Displacement of [3H]DPCPX from human recombinant adenosine A2B receptor expressed in HEK293 cells at 1 uM after 30 mins. Format: cell-based. Background: Loss of bound radioactivity is the signal in a displacement assay; it reports binding, not function.

Test [3] deals with T3, Adenosine receptor A3 (Homo sapiens) (UniProt P0DMS8).
T3 sequence (whole entry): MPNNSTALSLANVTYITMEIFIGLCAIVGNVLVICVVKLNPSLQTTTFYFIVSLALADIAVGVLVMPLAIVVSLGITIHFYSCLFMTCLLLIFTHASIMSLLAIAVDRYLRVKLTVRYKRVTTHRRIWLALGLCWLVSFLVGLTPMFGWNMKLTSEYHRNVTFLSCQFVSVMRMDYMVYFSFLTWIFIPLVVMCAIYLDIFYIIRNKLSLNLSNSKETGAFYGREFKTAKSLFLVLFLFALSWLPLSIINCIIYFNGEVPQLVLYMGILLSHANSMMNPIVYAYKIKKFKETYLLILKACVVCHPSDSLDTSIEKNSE
Description: Displacement of [3H]NECA from human recombinant adenosine A3 receptor expressed in human HeLa cells at 1 uM after 180 mins by scintillation counting. Format: cell-based.

Test [4] has as its target T4, Adenosine receptor A2a (Homo sapiens, UniProt P29274). Description: Displacement of [3H]ZM241385 from human recombinant adenosine A2A receptor expressed in human HeLa cells at 1 uM after 30 mins. Format: cell-based.
A further test concerns the target T5, Adenosine receptor A2b (Homo sapiens, UniProt P29275).
T5 sequence (P29275 whole entry): T2 sequence (whole entry)
Description: Displacement of [3H]DPCPX from human recombinant adenosine A2B receptor expressed in HEK293 cells after 30 mins. It counts as cell-based.

A further test deals with T6, Adenosine receptor A1 (Homo sapiens, UniProt P30542).
T6 sequence (P30542 whole entry): T1 sequence (whole entry)
The test can be described thus: Displacement of [3H]DPCPX from human recombinant adenosine A1 receptor expressed in CHO-A1 cells after 60 mins. Format: cell-based.

The species entered for test [5] is Homo sapiens. Description: Selectivity ratio of Ki for human recombinant adenosine A2B receptor to Ki for human recombinant adenosine A1 receptor.
Test [6] has as its target T4, Adenosine receptor A2a. Description: Displacement of [3H]ZM241385 from human recombinant adenosine A2A receptor expressed in human HeLa cells after 30 mins. It counts as cell-based.
Test [7] is filed under the species Homo sapiens. Description: Selectivity ratio of Ki for human recombinant adenosine A2B receptor to Ki for human recombinant adenosine A2A receptor.

T4 sequence (P29274 whole entry): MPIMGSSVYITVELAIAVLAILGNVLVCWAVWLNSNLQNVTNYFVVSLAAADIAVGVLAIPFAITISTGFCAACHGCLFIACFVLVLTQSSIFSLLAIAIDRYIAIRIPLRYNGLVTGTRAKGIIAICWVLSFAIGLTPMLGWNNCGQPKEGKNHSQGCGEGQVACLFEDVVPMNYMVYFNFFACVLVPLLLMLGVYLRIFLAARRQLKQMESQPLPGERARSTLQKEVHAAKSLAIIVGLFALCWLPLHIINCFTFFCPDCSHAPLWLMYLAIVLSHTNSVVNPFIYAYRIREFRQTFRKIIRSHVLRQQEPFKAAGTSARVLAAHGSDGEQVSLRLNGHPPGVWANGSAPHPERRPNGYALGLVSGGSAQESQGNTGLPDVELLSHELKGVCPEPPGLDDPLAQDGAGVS

Regarding `CCCn1c(=O)c2c(cc(-c3ccc(OCC(=O)N4CCN(c5ccccc5)CC4)cc3)n2C)n(CCC)c1=O`, the inhibition in test [1] is 22%; in test [2], 36%; in test [3], 2%; at Adenosine receptor A2a [4], 22%.

In the case of `CCCn1c(=O)[nH]c(=O)c2[nH]c(-c3ccc(OCC(=O)Nc4ccc(F)cc4)cc3)cc21`, the Ki at Adenosine receptor A2b was 100 nM. Also, the inhibition in test [1] was 2%; in test [3], 3%; at Adenosine receptor A2a [4] it was 36%.

For the compound `CCCn1c(=O)[nH]c2cc(-c3ccc(OCC(=O)Nc4ccc(Br)cc4)cc3)[nH]c2c1=O`, the Ki on Adenosine receptor A1 is 1.74 nM; on Adenosine receptor A2b it was 3.55 nM. The inhibition in test [3] came to 14%; on Adenosine receptor A2a [4], 43%. Further, in the test listed under Homo sapiens [5], the Ratio pKi amounted to 0.49.

Regarding `CCCn1c(=O)[nH]c2cc(-c3ccc(OCc4nc(-c5ccc(Br)cc5)no4)cc3)[nH]c2c1=O`, the Ki at Adenosine receptor A2b is 31.6 nM. Moreover, the inhibition in [1] stood at 21%; in test [3], 2%; on Adenosine receptor A2a [4], 11%.

For the compound `CCCn1c(=O)[nH]c(=O)c2[nH]c(-c3ccc(OCC(=O)N4CCN(c5ccccc5)CC4)cc3)cc21`, the Ki at Adenosine receptor A2b was 115 nM. In addition, the inhibition in [1] worked out at 23%; in [3], 15%; on Adenosine receptor A2a [4] it was 33%.

As for `CCCn1c(=O)[nH]c(=O)c2[nH]c(-c3ccc(OCC(=O)N4CCc5ccccc5C4)cc3)cc21`, the Ki at Adenosine receptor A2b is 79.4 nM. In addition, the inhibition in [1] came to 9%; in test [3] it was 1%; on Adenosine receptor A2a [4] it was 12%.

With `CCCn1c(=O)c2c(cc(-c3ccc(OCC(=O)Nc4ccc(F)cc4)cc3)n2C)n(C)c1=O`, the inhibition constant (Ki) on Adenosine receptor A2b was 30.9 nM. The inhibition in [3] was determined as 6%; at Adenosine receptor A2a [4] it was 11%. The Ratio pKi in the test filed under Homo sapiens [5] is 5.89.

As for `CCCn1c(=O)[nH]c2cc(-c3ccc(OCC(=O)Nc4ccc(F)cc4)cc3)[nH]c2c1=O`, the Ki at Adenosine receptor A1 is 75.9 nM; at Adenosine receptor A2b it was 2.34 nM; at Adenosine receptor A2a [6] it was 6460 nM. For the same compound, in [3], the inhibition is 2%. The Ratio pKi in the test listed under Homo sapiens [7] turned out to be 2750; in the test listed under Homo sapiens [5], 32.4.

`CCCn1c(=O)c2c(cc(-c3ccc(OCC(=O)N4CCc5ccccc5C4)cc3)n2C)n(CCC)c1=O`: the Ki on Adenosine receptor A2b was 97.7 nM. Also, the results for the inhibition (in [1]; in test [3]; at Adenosine receptor A2a [4]) were 19%, 9% and 29%, respectively.

Turning to `CCCn1c(=O)c2c(cc(-c3ccc(OCC(=O)Nc4ccc(F)cc4)cc3)n2C)n(CCC)c1=O`, the inhibition in [1] stood at 9%; in [2], 20%; in [3] it was 1%; on Adenosine receptor A2a [4], 15%.

On to `CCCn1c(=O)[nH]c(=O)c2[nH]c(-c3ccc(OCC(=O)Nc4ccc(Br)cc4)cc3)cc21`, for which, on Adenosine receptor A2b, the Ki is 21.9 nM. Further, the inhibition in test [1] came to 41%; in [3] it was 28%; at Adenosine receptor A2a [4], 22%.

Regarding `COc1cc(OCc2nc(-c3ccc(Br)cc3)no2)ccc1-c1cc2c([nH]1)c(=O)n(C)c(=O)n2C`, the inhibition constant (Ki) on Adenosine receptor A1 was 182 nM; at Adenosine receptor A2b it was 40.7 nM; on Adenosine receptor A2a [6], 708 nM. For the same compound, the inhibition was determined as 36% in [1] and 3% in test [3]. Moreover, in the test filed under Homo sapiens [7], the Ratio pKi is 17.4.

Regarding `CCCn1c(=O)[nH]c(=O)c2[nH]c(-c3ccc(OCC(=O)Nc4ccccc4)cc3)cc21`, at Adenosine receptor A2b, the Ki was 1050 nM. Besides, the inhibition was 0.5% in [1], 1% in [3] and 17% on Adenosine receptor A2a [4].
